Here are results for 22 molecules from patent publication EP4737445A1, “NOVEL SATURATED HETEROCYCLE-SUBSTITUTED HETEROARYL-CARBONOHYDRAZONOYL DICYANIDE COMPOUND AND USE THEREOF” (Korea Institute of Science and Technology, priority 2023, dated 2025).

A short description of data set [1]: Liver microsomal stability, human. The following applies: 1 µM compound; 0.5 mg/mL microsomes; NADPH; 30 minutes at 37°C. It is filed as in vitro ADME. The method, then:
(§1) Liver microsomal stability by the compounds prepared according to Examples 1 to 46 was confirmed. Specifically, four types of liver microsomes (human, dog, rat, and mouse each at 0.5 mg/mL), 0.1 M phosphate buffer solution (pH 7.4), and the compounds at 1 µM concentration were added and pre-incubated at 37°C for 5 minutes, and then NADPH generation system solution was added and incubated at 37°C for an additional 30 minutes. Thereafter, an acetonitrile solution containing an internal standard (chloropropamide) was added to terminate the reaction, and after centrifugation for 5 minutes (14,000 rpm, 4°C), the supernatant was injected into an LC-MS/MS system to analyze the substrate drug, thereby evaluating the metabolic stability of 8 compounds.
(§2) The amount of remaining substrate through the reaction was analyzed using a Shimadzu Nexera XR system and TSQ vantage (Thermo). A Kinetex XB-C18 (2.1 × 100 mm, 2.6 µm, particle size; Phenomenex, USA) was used as the HPLC column, and (A) distilled water containing 0.1% formic acid and (B) acetonitrile containing 0.1% formic acid were used as mobile phases. Analyst software (version 1.6.3) and Xcalibur (version 1.6.1) were used for data analysis. The calculated results are shown in Table 5 below: Liver microsomal stability data of novel compounds from […] (human, rat, and mouse).

The nature of data set [2]: Liver microsomal stability, mouse. It is filed as in vitro ADME. The settings on record: 1 µM compound; 0.5 mg/mL microsomes; NADPH; 30 minutes at 37°C. The method, then:
as §1, §2

The subject of a further data set is Tau-BiFC cells. As to the kind of experiment: Cell viability (stained nuclei count) in Tau-BiFC cells. It is filed as cell-based. The following applies: @10 µM; Tau-BiFC cell line; Forskolin-only group = 100%. The protocol: To screen for new tau aggregation inhibitors, a Tau-BiFC cell model that facilitates observation of tau oligomer formation in living cells was used. Tau-BiFC cells were dispensed into a 384-well plate, and the next day, the compounds prepared according to Examples 1 to 46 were treated at concentrations of 1, 3, and 10 µM, respectively, together with Forskolin (treatment concentration 30 µM), which is a compound that induces tau aggregation by activating the tau phosphorylation enzyme PKA. After 48 hours, nuclei within cells were stained using Hoechst (treatment concentration 2 µg/mL), and BiFC fluorescence intensity was automatically quantified using Operetta (Perkin Elmer) to count the stained nuclei in each well from the entire plate. The group treated only with Forskolin, which induces tau aggregation, was set as the reference point with 100% tau aggregation state, and the effect was confirmed by the formula "BiFC fluorescence intensity by the compounds synthesized according to the Examples of the disclosure/(fluorescence intensity of the control group treated only with Forskolin that induces tau aggregation - fluorescence intensity of the untreated control group) × 100". In addition, the degree of cytotoxicity induced by the newly synthesized compounds was also calculated using the formula "(number of stained nuclei in the compound-treated group/number of stained nuclei in the Forskolin-treated group) × 100", with the group treated only with Forskolin as the reference point at 100% viability. From the treatment results, substances that inhibit intracellular tau aggregation were identified through screening from a series of candidates based on the criteria of 70% or more tau aggregation inhibition and 100% cell viability at a compound treatment concentration of 10 µM.
To confirm the tau aggregation inhibitory effect according to the concentration of the compounds screened in Experimental Example 1, the screened compounds were treated to Tau-BiFC cells at concentrations of 0.03, 0.1, 0.3, 1, 3, 10, and 30 µM, respectively, together with Forskolin (treatment concentration 30 µM), which is a tau aggregation-inducing substance. After 48 hours, cell images were examined to analyze the tau aggregation reaction and degree of cytotoxicity. The IC50 and toxicity of the compounds were analyzed by nonlinear regression analysis using Prism software (GraphPad). The calculated results for representative compounds are shown in Table 3 below: Tau aggregation inhibitory effect and cell viability of novel compounds.

For the molecule `N#CC(C#N)=NNc1ccc2sc(N3CCOCC3)nc2c1` [Compound 1, (2-morpholinobenzo[d]thiazol-5-yl)carbonohydrazonoyl dicyanide], the “Human microsomes (% remaining)” value in data set [1] is 91.2 % remaining. Besides, the “Mouse microsomes (% remaining)” value in data set [2] is given as 49.3 % remaining. Moreover, the “Cell viability (% @10µM)” value in the data set with Tau-BiFC cells is reported as 100%.

In the case of `N#CC(C#N)=NNc1ccc2nc(N3CCOCC3)sc2c1` [Compound 2, (2-morpholinobenzo[d]thiazol-6-yl)carbonohydrazonoyl dicyanide], in data set [1], the “Human microsomes (% remaining)” value came to 74.3 % remaining. Also, in data set [2], the “Mouse microsomes (% remaining)” value came out at 94.10 % remaining. The “Cell viability (% @10µM)” value in the data set with Tau-BiFC cells was determined as 100%.

In the case of `N#CC(C#N)=NNc1ccc2oc(N3CCOCC3)nc2c1` [Compound 3, (2-morpholinobenzo[d]oxazol-5-yl)carbonohydrazonoyl dicyanide], in data set [1], the “Human microsomes (% remaining)” value is reported as 99.4 % remaining. The “Mouse microsomes (% remaining)” value in data set [2] stood at 80.6 % remaining. The “Cell viability (% @10µM)” value with Tau-BiFC cells is listed as 100%.

With `N#CC(C#N)=NNc1ccc2nc(N3CCOCC3)oc2c1` [Compound 4, (2-morpholinobenzo[d]oxazol-6-yl)carbonohydrazonoyl dicyanide], the “Human microsomes (% remaining)” value in data set [1] is recorded as 93.5 % remaining. The “Mouse microsomes (% remaining)” value in data set [2] came to 98.5 % remaining. The “Cell viability (% @10µM)” value with Tau-BiFC cells is on record as 100%.

Regarding `Cn1c(N2CCOCC2)nc2ccc(NN=C(C#N)C#N)cc21` [Compound 5, (1-methyl-2-morpholino-1H-benzo[d]imidazol-6-yl)carbonohydrazonoyl dicyanide], the “Human microsomes (% remaining)” value in data set [1] was found to be 77.8 % remaining. The “Mouse microsomes (% remaining)” value in data set [2] was 91.9 % remaining. In the data set with Tau-BiFC cells, the “Cell viability (% @10µM)” value was found to be 100%.

Regarding `CN1CCN(c2nc3ccc(NN=C(C#N)C#N)cc3s2)CC1` [Compound 8, (2-(4-methylpiperazin-1-yl)benzo[d]thiazol-6-yl)carbonohydrazonoyl dicyanide], in data set [1], the “Human microsomes (% remaining)” value is 83.9 % remaining. In addition, the “Mouse microsomes (% remaining)” value in data set [2] is given as 77.4 % remaining. For the same molecule, the “Cell viability (% @10µM)” value in the data set with Tau-BiFC cells was 101%.

As for `COC1CCN(c2nc3ccc(NN=C(C#N)C#N)cc3s2)CC1` [Compound 9, (2-(4-methoxypiperidin-1-yl)benzo[d]thiazol-6-yl)carbonohydrazonoyl dicyanide], the “Human microsomes (% remaining)” value in data set [1] is listed as 5.0 % remaining. In addition, the “Mouse microsomes (% remaining)” value in data set [2] came out at 83.8 % remaining. Further, in the data set with Tau-BiFC cells, the “Cell viability (% @10µM)” value worked out at 100%.

In the case of `CC1CN(c2nc3ccc(NN=C(C#N)C#N)cc3s2)CC(C)O1` (stereo not shown) [Compound 10, (2-(2,6-dimethylmorpholino)benzo[d]thiazol-6-yl)carbonohydrazonoyl dicyanide], the “Human microsomes (% remaining)” value in data set [1] is recorded as 69.4 % remaining. Also, the “Mouse microsomes (% remaining)” value in data set [2] came out at 87.3 % remaining. In the data set on Tau-BiFC cells, the “Cell viability (% @10µM)” value is 109%.

With `N#CC(C#N)=NNc1ccc2nc(N3C4CCC3COC4)sc2c1` [Compound 11, (2-(3-oxa-8-azabicyclo[3.2.1]octan-8-yl)benzo[d]thiazol-6-yl)carbonohydrazonoyl dicyanide], the “Human microsomes (% remaining)” value in data set [1] is on record as 81.3 % remaining. Besides, in data set [2], the “Mouse microsomes (% remaining)” value is on record as 87.8 % remaining. Also, the “Cell viability (% @10µM)” value in the data set on Tau-BiFC cells is listed as 100%.

Turning to `CC1CN(c2nc3ccc(NN=C(C#N)C#N)cc3s2)CCO1` (stereo not shown) [Compound 12, (2-(2-methylmorpholino)benzo[d]thiazol-6-yl)carbonohydrazonoyl dicyanide], in data set [1], the “Human microsomes (% remaining)” value was 62.7 % remaining. In addition, in data set [2], the “Mouse microsomes (% remaining)” value worked out at 85.1 % remaining. The “Cell viability (% @10µM)” value with Tau-BiFC cells was found to be 102%.

In the case of `CC1COCCN1c1nc2ccc(NN=C(C#N)C#N)cc2s1` (stereo not shown) [Compound 13, (2-(3-methylmorpholino)benzo[d]thiazol-6-yl)carbonohydrazonoyl dicyanide], the “Human microsomes (% remaining)” value in data set [1] is 79.9 % remaining. The “Mouse microsomes (% remaining)” value in data set [2] is reported as 84.8 % remaining. In addition, the “Cell viability (% @10µM)” value in the data set with Tau-BiFC cells stood at 99%.

Regarding `CN1CCN(c2nc3ccc(NN=C(C#N)C#N)cc3o2)CC1` [Compound 14, (2-(4-methylpiperazin-1-yl)benzo[d]oxazol-6-yl)carbonohydrazonoyl dicyanide], the “Cell viability (% @10µM)” value with Tau-BiFC cells is on record as 100%.

In the case of `CC1CN(c2nc3ccc(NN=C(C#N)C#N)cc3o2)CCO1` (stereo not shown) [Compound 15, (2-(2-methylmorpholino)benzo[d]oxazol-6-yl)carbonohydrazonoyl dicyanide], in data set [1], the “Human microsomes (% remaining)” value is listed as > 100 % remaining. In addition, the “Mouse microsomes (% remaining)” value in data set [2] is > 100 % remaining. Further, the “Cell viability (% @10µM)” value in the data set on Tau-BiFC cells came out at 100%.

As to `COC1CCN(c2nc3ccc(NN=C(C#N)C#N)cc3o2)CC1` [Compound 17, (2-(4-methoxypiperidin-1-yl)benzo[d]oxazol-6-yl)carbonohydrazonoyl dicyanide], the “Human microsomes (% remaining)” value in data set [1] turned out to be 16.7 % remaining. Moreover, the “Mouse microsomes (% remaining)” value in data set [2] was > 100 % remaining. The “Cell viability (% @10µM)” value in the data set with Tau-BiFC cells is reported as 100%.

`CC1CN(c2nc3ccc(NN=C(C#N)C#N)cc3o2)CC(C)O1` (stereo not shown) [Compound 18, (2-(2,6-dimethylmorpholino)benzo[d]oxazol-6-yl)carbonohydrazonoyl dicyanide]: in data set [1], the “Human microsomes (% remaining)” value was 95.8 % remaining. For the same molecule, the “Mouse microsomes (% remaining)” value in data set [2] is reported as 86.2 % remaining. Moreover, in the data set with Tau-BiFC cells, the “Cell viability (% @10µM)” value turned out to be 100%.

`N#CC(C#N)=NNc1ccc2nc(N3CC4CCC(C3)O4)sc2c1` [Compound 23, (2-(8-oxa-3-azabicyclo[3.2.1]octan-3-yl)benzo[d]thiazol-6-yl)carbonohydrazonoyl dicyanide]: in data set [1], the “Human microsomes (% remaining)” value is listed as 85.6 % remaining. In addition, the “Mouse microsomes (% remaining)” value in data set [2] was 86.6 % remaining. In the data set with Tau-BiFC cells, the “Cell viability (% @10µM)” value is reported as 92%.

`N#CC(C#N)=NNc1ccc2nc(N3CCNCC3)sc2c1` [Compound 24, (2-(piperazin-1-yl)benzo[d]thiazol-6-yl)carbonohydrazonoyl dicyanide]: the “Cell viability (% @10µM)” value in the data set on Tau-BiFC cells is 95%.

On to `N#CC(C#N)=NNc1ccc2nc(N3CCNCC3)oc2c1` [Compound 25, (2-(piperazin-1-yl)benzo[d]oxazol-6-yl)carbonohydrazonoyl dicyanide], for which, in the data set with Tau-BiFC cells, the “Cell viability (% @10µM)” value was found to be 94%.

Take `N#CC(C#N)=NNc1ccc2nc(N3CC4CCC(C3)O4)oc2c1` [Compound 26, (2-(8-oxa-3-azabicyclo[3.2.1]octan-3-yl)benzo[d]oxazol-6-yl)carbonohydrazonoyl dicyanide]: the “Human microsomes (% remaining)” value in data set [1] is listed as 96.3 % remaining. The “Mouse microsomes (% remaining)” value in data set [2] is listed as 99 % remaining. The “Cell viability (% @10µM)” value in the data set on Tau-BiFC cells is 99%.

In the case of `CC(C)N1CCN(c2nc3ccc(NN=C(C#N)C#N)cc3s2)CC1` [Compound 27, (2-(4-isopropylpiperazin-1-yl)benzo[d]thiazol-6-yl)carbonohydrazonoyl dicyanide], the “Cell viability (% @10µM)” value in the data set with Tau-BiFC cells is given as 99%.

Turning to `CC(C)N1CCN(c2nc3ccc(NN=C(C#N)C#N)cc3o2)CC1` [Compound 28, (2-(4-isopropylpiperazin-1-yl)benzo[d]oxazol-6-yl)carbonohydrazonoyl dicyanide], the “Human microsomes (% remaining)” value in data set [1] amounted to 11.7 % remaining. In addition, the “Mouse microsomes (% remaining)” value in data set [2] came out at 81.8 % remaining. Further, in the data set with Tau-BiFC cells, the “Cell viability (% @10µM)” value was determined as 99%.

As for `CC(=O)N1CCN(c2nc3ccc(NN=C(C#N)C#N)cc3s2)CC1` [Compound 30, (2-(4-acetylpiperazin-1-yl)benzo[d]thiazol-6-yl)carbonohydrazonoyl dicyanide], the “Human microsomes (% remaining)” value in data set [1] was > 100 % remaining. For the same molecule, the “Mouse microsomes (% remaining)” value in data set [2] turned out to be 83.8 % remaining. Besides, in the data set with Tau-BiFC cells, the “Cell viability (% @10µM)” value turned out to be 99%.
